For assay [1], the target named is T1, CDK9 kinase (Homo sapiens, UniProt P50750).
T1 construct: purchased Millipore 14-685M
In words: Inhibitory effect on the kinase activity of CDK9 in vitro. In kind it is biochemical. The conditions noted are these: CDK9 kinase (Millipore), CTD3 substrate polypeptide, Caliper. Here is the method:
The detection of the inhibitory effect of the compounds of the present disclosure on the kinase activity of CDK9 in vitro was determined by the following method:
Compound preparation: The compound was accurately weighed and dissolved in DMSO (Sigma, D2650) to a concentration of 100 um for later use. The compound was diluted to 5-fold of a desired highest concentration, and diluted 4-fold into 6 concentration gradients, allowing the final concentration of the compound in the reaction system to be 100, 25, 6.25, 1.56, 0.39, 0.098 nM. 5 ul was taken to a 384-well plate (Corning, 4512).
Detection: Data was collected by Caliper.
Calculation: The IC50 value was calculated by Graphpad prism 5.0 software according to the concentration of the compound and the corresponding signal value.

Assay [2] deals with Mv4-11 cells. As to the kind of experiment: Inhibition of the proliferation of Mv4-11 cells (CCK8). In kind it is cell-based. The conditions noted are these: Homo sapiens, MV4-11, 48 h, Mv4-11 cell proliferation, CCK8 OD450. The procedure: The inhibition effect of the compounds of the present disclosure on the proliferation of Mv4-11 cells (ATCC:CRL-9591TM) in vitro was determined by the following method:
Cell inoculation: Mv4-11 cells with good growing state in logarithmic growth phase were inoculated into a 96-well plate at 20000 cells per well and 50 uL, and cultured at 37° C. and under 5% CO2 condition for 2-4 h. Administration: The compound was diluted with 1640 medium containing 10% FBS and 1% PS: 0.4 uL of the compound with an initial concentration of 1 mM was placed in a dilution plate, each added with 199.6 uL of the above culture medium, and gradiently diluted 4-fold, so that the final concentration in the added cell was 1000, 250, 62.5, 15.625, 3.91, 0.98, 0.24, 0.06 nM. 50 μL of the medium containing the compound was sequentially added, and it was placed in a 37° C., 5% CO2 cell incubator for 48 hours.
Detection: 10 uL CCK8 (Dojindo, CK 04) solution was added to each well, incubated in 37° C. 5% CO2 cell incubator for 2 hours, and then the OD450 value was read by Synegry H1 (BioTek) multimode microplate reader.
Calculation: The IC50 value was calculated using Graphpad prism 5.0 software according to the concentration of the compound and the corresponding signal value.

The test system of assay [3] is phosphorylation of RNA pol II Ser2 in Mv4-11 cells. As to the kind of experiment: Inhibition of phosphorylation of RNA pol II Ser2 in Mv4-11 cells (SDS-PAGE, FIG. 1). In kind it is cell-based. The conditions noted are these: 6 hours, different concentrations. Here is the method: The inhibition effect of the compounds of the present disclosure on the in vitro Mv4-11 cell RNA pol II Ser 2 was determined by the following method:
Cell inoculation: Mv4-11 cells with good growing state in logarithmic growth phase were inoculated into a six-well plate with 2*10^5 cells/well, and cultured overnight at 37° C. and under 5% CO2 condition.
Administration: The compound was diluted with 2 mL of 1640 medium containing 10% FBS and 1% PS. 2 ul of the medium containing the compound was added to the overnight cultured cells, and it was placed in a 37° C., 5% CO2 cell incubator for 6 hours.
Protein extraction and quantification: Cell suspension was collected and centrifuged at 1000 g for 5 min, the cell culturing medium was discarded, and PBS was added for resuspension and centrifugation; it was repeated three times, the residual liquid was sucked dry, 80 uL cell lysate was added per well, it was placed to ice, shaked for 10 min on a shaker, centrifuged at 12000 g for 5 min, and the supernatant, ie, the total protein solution, was collected; the protein concentration was tested by BCA.

We go through six compounds from patent US20230192703A1, “Polycyclic amide derivative as CDK9 inhibitor, preparation method therefor and use thereof” (Suzhou AlphaMa Biotechnology Co., Ltd., priority 2020, published 2023).

T1 sequence (P50750 whole entry): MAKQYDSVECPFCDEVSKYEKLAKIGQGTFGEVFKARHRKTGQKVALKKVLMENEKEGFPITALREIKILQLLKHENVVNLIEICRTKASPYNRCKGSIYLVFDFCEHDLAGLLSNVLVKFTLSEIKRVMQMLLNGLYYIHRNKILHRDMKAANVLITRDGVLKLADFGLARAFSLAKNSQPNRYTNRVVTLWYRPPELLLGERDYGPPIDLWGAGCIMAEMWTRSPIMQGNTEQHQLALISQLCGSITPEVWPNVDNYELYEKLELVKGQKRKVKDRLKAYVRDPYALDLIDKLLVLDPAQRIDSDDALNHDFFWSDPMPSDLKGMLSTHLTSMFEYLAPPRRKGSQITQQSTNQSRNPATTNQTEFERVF
T1 sequence (O60563 whole entry partner): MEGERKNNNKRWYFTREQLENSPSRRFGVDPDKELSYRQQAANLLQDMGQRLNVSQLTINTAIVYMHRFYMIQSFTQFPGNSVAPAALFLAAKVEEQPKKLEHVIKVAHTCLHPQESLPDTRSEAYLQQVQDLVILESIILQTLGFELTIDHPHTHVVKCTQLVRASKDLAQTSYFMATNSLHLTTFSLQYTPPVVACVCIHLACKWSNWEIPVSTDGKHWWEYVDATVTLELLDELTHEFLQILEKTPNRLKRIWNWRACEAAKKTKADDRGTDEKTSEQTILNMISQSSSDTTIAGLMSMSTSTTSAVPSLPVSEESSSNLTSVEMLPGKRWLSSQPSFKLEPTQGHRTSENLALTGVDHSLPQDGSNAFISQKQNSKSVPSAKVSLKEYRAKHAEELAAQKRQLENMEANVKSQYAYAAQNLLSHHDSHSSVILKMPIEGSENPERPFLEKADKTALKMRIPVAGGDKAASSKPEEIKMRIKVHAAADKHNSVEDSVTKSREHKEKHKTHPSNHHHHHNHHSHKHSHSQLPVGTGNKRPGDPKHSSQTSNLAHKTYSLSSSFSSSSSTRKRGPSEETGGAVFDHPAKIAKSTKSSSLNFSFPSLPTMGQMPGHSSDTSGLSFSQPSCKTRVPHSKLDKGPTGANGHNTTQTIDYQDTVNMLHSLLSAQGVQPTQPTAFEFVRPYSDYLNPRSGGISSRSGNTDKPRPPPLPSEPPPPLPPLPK

Turning to `CC(=O)N1C[C@H]2CC(C(=O)Nc3cc(-c4cc(C#N)n5c4CC(C)(C)C5)c(Cl)cn3)C[C@H]2C1` (single isomer, unassigned) [Compound 7-1], the IC50 (in general, the point on the concentration scale where inhibition reaches its midpoint) in assay [1] was determined as 3.2 nM; in assay [2] it was 17.5 nM. Also, the “inhibitory effect on the phosphorylation of RNA pol II Ser 2 in Mv4-11 cells” value (from here on “inhibitory effect on the phosphorylation”) in assay [3] is “significant inhibitory effect”.

In the case of `Cn1ccc([C@@H]2CCC[C@H](C(=O)Nc3cc(-c4cnn5c4CC(C)(C)C5)c(Cl)cn3)C2)n1` (single isomer, unassigned) [Compound 22-1-1], the IC50 was determined as 3.2 nM in assay [1] and 2.8 nM in assay [2]. Also, the “inhibitory effect on the phosphorylation” value in assay [3] is reported as “significant inhibitory effect”.

As to `CC(=O)N[C@@H]1CCC[C@H](C(=O)Nc2cc(-c3cc(C(N)=O)n4c3CC(C)(C)C4)ccn2)C1` [Compound 12], the IC50 in assay [1] was found to be 2.9 nM; in assay [2] it was 26 nM. Moreover, in assay [3], the “inhibitory effect on the phosphorylation” value is given as “significant inhibitory effect”.

With `CC(=O)N[C@@H]1CCC[C@H](C(=O)Nc2cc(-c3cnn4c3CC(C)(C)C4)c(C(F)(F)F)cn2)C1` [Compound 30, (1S,3R)-3-acetamido-N-(4-(5,5-dimethyl-5,6-dihydro-4H-pyrrolo[1,2-b]pyrazol-3-yl)-5-(trifluoromethyl)pyridin-2-yl)cyclohexane-1-carboxamide], the half-inhibitory concentration (IC50) in assay [1] amounted to 6.3 nM; in assay [2], 15.3 nM.

Regarding `CC(=O)N[C@@H]1CCC[C@H](C(=O)Nc2cc(-c3cc(C(N)=O)c4n3CC(C)(C)C4)c(F)cn2)C1` [Compound 31, 5-(2-((1S,3R)-3-acetylaminocyclohexane-1-carboxamido)-5-fluoropyridin-4-yl)-2,2-dimethyl-2,3-dihydro-1H-pyrrolizine-7-carboxamide], the half-inhibitory concentration (IC50) came out at 4.8 nM in assay [1] and 9.2 nM in assay [2].

On to `CC(=O)N[C@H]1C[C@@H]2C[C@@H](C(=O)Nc3cc(-c4cc(C(N)=O)n5c4CC(C)(C)C5)c(F)cn3)C[C@@H]2C1` [Compound 34-1, 7-(2-((2r,3aR,5s,6aS)-5-acetylaminooctahydropentalene-2-carboxamido)-5-fluoropyridin-4-yl)-2,2-dimethyl-2,3-dihydro-1H-pyrrolizine-5-carboxamide], for which the IC50 in assay [1] came out at 4.9 nM; in assay [2] it was 2.3 nM.
